The test addresses human TRPV4 (Homo sapiens (Human), UniProt Q9HBA0). Put plainly: Test Example 1: measurement of TRPV4 inhibitory activity (Fluo 4-AM, FLIPR TETRA, 4α-PDD 1 μmol/L). Format: cell-based. The conditions noted are these: hTRPV4/CHO cells; for IC50: 4α-PDD 1 μmol/L; for Ki: calculated from IC50 and 4α-PDD EC50. On the procedure: For each compound, TRPV4 inhibitory activity was measured using cells.
(1) The TRPV4 inhibitory activity was measured using CHO-K1 cells stably expressing human TRPV4 (hTRPV4/CHO cells).
(2) In the day before the experimental day, frozen cell were thawed and washed with the culture medium (MEM-α, 10% FBS, 2 mmol/L GlutaMax, 50 unit Penicillin, 50 μg/mL Streptomycin). Then cells were suspended in the culture medium.
(3) The 384-well plates which hTRPV4/CHO cells were seeded at densities of 4000 cells/well in the culture medium and cultured in a CO2 incubator in the presence of 5% CO2 at 37° C. for overnight was used as assay plates.
(4) The assay plate was washed with assay buffer (Hanks, 20 mmol/L HEPES, 2.5 mmol/L probenecid, pH7.4), and the buffer were remained at 20 μL/well.
(5) 10 μl of dye loading buffer (9 μmol/L Fluo 4-AM, 0.09% Pluronic F-127/assay buffer) was added to each well, then the assay plate was incubated in a CO2 incubator in the presence of 5% CO2 at 37° C. for one hour. (final 3 μmol/L Fluo4-AM).
(6) The assay plate was washed with the assay buffer, and the buffers were remained at 20 μL/well. Then the assay plate was incubated for 10 min at room temperature.
(7) Diluted compound solution was dispensed to each well in the compound plate, and mixed with built-in Pipette and Mixer of the Fluorescence analysis system FLIPR TETRA (Molecular devices).
(8) After incubation for 5 min, 20 μL of 4α-PDD solution were applied to each well of assay plate and mixed with the FLIPR TETRA. (final 1 μmol/L 4α-PDD)
(9) The fluorescent intensity was measured with FLIPR TETRA system for 10 min from the point of time addition the compound solution, at Ex 470-495 nm, Em 515-575 nm wavelength.
TRPV4 inhibitory activity (IC50 value and Ki value) of a compound was evaluated according to the following procedure.
(10) In the presence of the compound, the difference between maximal and minimal of fluorescent intensity value for 5 min from just before addition of 4α-PDD solution was calculated, and it was referred as Max-Min value. Max-Min value of the Ruthenium Red at 20 μM was defined as 100% inhibitory activity, Max-Min value in the absence of the compound was defined as 0% inhibitory activity. The TRPV4 inhibitory activity of the compound was calculated by the following formula. (1−(Max-Min value of the compound−100% inhibitory activity)/(0% inhibitory activity−100% inhibitory activity))×100 (11) Inhibitory activity was calculated at 10 points with three fold serial dilution, in the final concentration of the compound from 10 μmmol/L to 0.5 nmol/L, the IC50 value was calculated by logistic approximation method. (12) In the absence of the compound, the fluorescent intensity was measured as the same method with 10, 1, 0.5, 0.2, and 0 μmol/L as final concentration of 4α-PDD. The difference of minimal and maximal fluorescent intensity value for 5 min from just before addition of 4α-PDD solution was calculated, and it was referred as Max-Min value. Max-Min value of the 4α-PDD at 10 μmol/L was defined as 100% activity, Max-Min value in the absence of 4α-PDD was defined as 0% activity. The TRPV4 activity of each concentration of 4α-PDD was calculated by the following formula. (Max-Min value of the each 4α-PDD concentration−0% activity)/(100% activity−0% activity))×100 (13) Effective activity was calculated in 5 concentrations of 4α-PDD the above. The EC50 value was calculated by logistic approximation method. The Ki value of a compound was calculated by the following formula. Ki (nmol/L)=IC50 value (nmol/L)/(1+[…] (test 4α-PDD concentration (nmol/L)/EC50 value (nmol/L))

By IC50 is commonly meant the concentration that inhibits the measured activity by half. Higher therefore signals a need for much substance. Usually Ki stands for the equilibrium dissociation constant of an inhibitor or competing ligand from its target.

Sequence of human TRPV4 (Q9HBA0 whole entry): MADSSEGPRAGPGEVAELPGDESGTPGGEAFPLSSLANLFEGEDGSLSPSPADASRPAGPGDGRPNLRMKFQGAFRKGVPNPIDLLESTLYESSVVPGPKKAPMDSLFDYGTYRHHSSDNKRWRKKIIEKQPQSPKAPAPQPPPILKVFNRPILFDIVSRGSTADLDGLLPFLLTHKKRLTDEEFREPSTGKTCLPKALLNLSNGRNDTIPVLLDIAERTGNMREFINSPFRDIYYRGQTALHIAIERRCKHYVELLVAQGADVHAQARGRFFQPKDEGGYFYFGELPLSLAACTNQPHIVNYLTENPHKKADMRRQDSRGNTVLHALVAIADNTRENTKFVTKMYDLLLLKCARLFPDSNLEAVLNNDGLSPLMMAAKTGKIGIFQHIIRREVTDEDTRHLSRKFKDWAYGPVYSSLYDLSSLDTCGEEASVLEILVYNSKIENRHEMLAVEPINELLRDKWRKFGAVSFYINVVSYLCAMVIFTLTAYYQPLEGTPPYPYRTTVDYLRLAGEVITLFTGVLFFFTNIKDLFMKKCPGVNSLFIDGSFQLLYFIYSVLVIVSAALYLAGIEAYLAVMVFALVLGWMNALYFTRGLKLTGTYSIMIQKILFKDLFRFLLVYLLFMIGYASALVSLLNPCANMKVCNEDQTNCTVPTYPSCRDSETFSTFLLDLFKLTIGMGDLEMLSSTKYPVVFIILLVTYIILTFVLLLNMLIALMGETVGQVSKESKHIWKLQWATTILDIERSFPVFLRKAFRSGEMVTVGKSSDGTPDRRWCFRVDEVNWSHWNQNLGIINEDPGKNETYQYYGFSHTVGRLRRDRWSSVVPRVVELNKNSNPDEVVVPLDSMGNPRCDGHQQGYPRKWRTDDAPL

Take `Cc1c(C(=O)Nc2cccc(C(F)(F)F)c2)cc(C(C)(C)C)n1CCS(=O)(=O)N1CCOCC1` [Compound I-095]: the IC50 was found to be 0.97 µM and the inhibition constant Ki is 0.38 µM.

Regarding `Cc1c(C(=O)Nc2cccc(C(F)(F)F)c2)cc(C(C)(C)C)n1C1CCNCC1` [Compound I-099], the half-inhibitory concentration (IC50) came out at 5.9 µM and the Ki is 2.1 µM.

Regarding `Cc1c(C(=O)Nc2cccc(C(F)(F)F)c2)cc(C(C)(C)C)n1[C@H]1CC[C@@H](N)CC1` [Compound I-116], the IC50 is 5.3 µM and the inhibition constant Ki is 1.5 µM.

Turning to `Cc1c(C(=O)Nc2cccc(C(F)(F)F)c2)cc(C(C)(C)C)n1CC(C)(C)CN1CCOCC1` [Compound I-108], the 50% inhibitory concentration (IC50) was determined as 0.54 µM and the Ki was 0.17 µM.

As for `Cc1c(C(=O)Nc2cccc(C(F)(F)F)c2)cc(C(C)(C)C)n1C1CCN(C)CC1` [Compound I-106], half-maximal inhibition (IC50) required 3.9 µM and the Ki is 1.2 µM.

With `Cc1c(C(=O)Nc2cccc(C(F)(F)F)c2)cc(C(C)(C)C)n1C1CCN(CCO)CC1` [Compound I-110], the concentration for half-maximal inhibition (IC50) was determined as 6.6 µM and the Ki is 2.4 µM.

Take `Cc1c(C(=O)Nc2cccc(C(F)(F)F)c2)cc(C(C)(C)C)n1[C@H]1CC[C@H](N(C)C)CC1` [Compound I-113]: the concentration for half-maximal inhibition (IC50) was found to be 5.8 µM and the Ki is 1.5 µM.

Take `Cc1c(-c2nc3ccccc3[nH]2)cc(C(C)(C)C)n1CCCN1CCNCC1` [Compound I-128]: 5.4 µM corresponded to half-maximal inhibition (IC50).

With `Cc1c(C(=O)Nc2cccc(C(F)(F)F)c2)cc(C(C)(C)C)n1C1CCN(S(C)(=O)=O)CC1` [Compound I-102], inhibition was half-maximal at 4.2 µM (IC50) and the Ki was 1.5 µM.

Consider `Cc1c(C(=O)Nc2cccc(C(F)(F)F)c2)cc(C(C)(C)C)n1CCC(=O)N1CCNCC1` [Compound I-093], for which the IC50 stood at 1.4 µM and the Ki was 0.53 µM.

Take `CNS(=O)(=O)CCn1c(C(C)(C)C)cc(C(=O)Nc2cccc(C(F)(F)F)c2)c1C` [Compound I-094]: 6.1 µM corresponded to half-maximal inhibition (IC50) and the Ki is 2.2 µM.

Regarding `Cc1c(C(=O)Nc2cccc(C(F)(F)F)c2)cc(C2CCCCC2)n1CCCN1CCOCC1` [Compound I-072], the IC50 turned out to be 0.045 µM and the Ki is 0.021 µM.

The compound `Cc1c(-c2nc3ccccc3o2)cc(C(C)(C)C)n1CCCN1CCNCC1` [Compound I-126] gave an IC50 of 4.5 µM.

With `Cc1c(C(=O)Nc2cccc(C(F)(F)F)c2)cc(C(C)(C)C)n1CC(F)(F)CN1CCNCC1` [Compound I-125], half-maximal inhibition (IC50) required 1.5 µM.

As to `CN[C@H]1CC[C@H](n2c(C(C)(C)C)cc(C(=O)Nc3cccc(C(F)(F)F)c3)c2C)CC1` [Compound I-112], 5.6 µM corresponded to half-maximal inhibition (IC50) and the Ki was 1.5 µM.

Take `CNCC(C)(C)Cn1c(C(C)(C)C)cc(C(=O)Nc2cccc(C(F)(F)F)c2)c1C` [Compound I-100]: the IC50 came to 0.83 µM and the Ki is 0.29 µM.

As for `Cc1c(C(=O)Nc2cccc(C(F)(F)F)c2)cc(C(C)(C)C)n1[C@H]1CC[C@@H](N(C)S(C)(=O)=O)CC1` [Compound I-120], the concentration for half-maximal inhibition (IC50) worked out at 3.5 µM and the Ki is 1.1 µM.

`Cc1c(C(=O)Nc2cccc(C(F)(F)F)c2)cc(C(C)(C)C)n1CC(C)(C)CN1CCNCC1` [Compound I-123]: the concentration for half-maximal inhibition (IC50) came to 1.4 µM and the inhibition constant Ki was 0.45 µM.

Consider `COC(=O)CN1CCC(n2c(C(C)(C)C)cc(C(=O)Nc3cccc(C(F)(F)F)c3)c2C)CC1` [Compound I-107], for which half-maximal inhibition (IC50) was put at 6.6 µM and the inhibition constant Ki is 2.1 µM.

Consider `Cc1c(C(=O)Nc2cccc(C(F)(F)F)c2)cc(C(C)(C)C)n1CCS(=O)(=O)N1CCNCC1` [Compound I-098], for which the IC50 came out at 1.9 µM and the Ki was 0.59 µM.

With `Cc1c(C(=O)Nc2cccc(C(F)(F)F)c2)cc(C(C)(C)C)n1C1CCN(C2CCNCC2)CC1` [Compound I-109], half-maximal inhibition (IC50) was put at 6.3 µM and the Ki is 2.3 µM.

For `Cc1c(C(=O)Nc2cccc(C(F)(F)F)c2)cc(C(C)(C)C)n1[C@H]1CC[C@H](N)CC1` [Compound I-111], half-maximal inhibition (IC50) required 4.1 µM and the Ki is 1.5 µM.

The compound `Cc1c(C(=O)Nc2cccc(C(F)(F)F)c2)cc(C(C)(C)C)n1CCC(C)N1CCNCC1` (stereo not drawn) [Compound I-124] displayed an IC50 of 0.26 µM.

In the case of `CNCC(F)(F)Cn1c(C(C)(C)C)cc(C(=O)Nc2cccc(C(F)(F)F)c2)c1C` [Compound I-121], 1.4 µM corresponded to half-maximal inhibition (IC50) and the Ki was 0.45 µM.

Take `Cc1c(S(=O)(=O)NCc2cccc(C(F)(F)F)c2)cc(C(C)(C)C)n1CCCN1CCOCC1` [Compound I-104]: the IC50 turned out to be 7.7 µM and the inhibition constant (Ki) is 2.7 µM.

For the compound `CNC(=O)CCn1c(C(C)(C)C)cc(C(=O)Nc2cccc(C(F)(F)F)c2)c1C` [Compound I-092], the IC50 was 6.4 µM and the Ki was 2.4 µM.

With `Cc1c(C(=O)Nc2cccc(C(F)(F)F)c2)cc(C(C)(C)C)n1CCC(=O)N1CCOCC1` [Compound I-091], the IC50 was found to be 1.5 µM and the Ki is 0.56 µM.

As to `CNC(C)CCn1c(C(C)(C)C)cc(C(=O)Nc2cccc(C(F)(F)F)c2)c1C` (stereo not drawn) [Compound I-096], the IC50 came out at 0.42 µM and the Ki was 0.13 µM.

For `Cc1c(C(=O)Nc2cccc(C(F)(F)F)c2)cc(C2CCN(C(=O)OCc3ccccc3)CC2)n1CCCN1CCOCC1` [Compound I-075], the IC50 is 0.27 µM and the Ki was 0.13 µM.

As for `Cc1c(C(=O)Nc2cccc(C(F)(F)F)c2)cc(C(C)(C)C)n1CCC(C)N1CCOCC1` (stereo not drawn) [Compound I-097], it took 0.43 µM to reach half-maximal inhibition (IC50) and the inhibitory constant (Ki) is 0.13 µM.

Take `Cc1c(C(=O)Nc2cccc(C(F)(F)F)c2)cc(C(C)(C)C)n1[C@H]1CC[C@@H](NS(C)(=O)=O)CC1` [Compound I-115]: the IC50 worked out at 6 µM and the Ki is 1.6 µM.

Turning to `Cc1c(C(=O)Nc2cccc(C(F)(F)F)c2)cc(C(C)(C)C)n1CC(F)(F)CN1CCOCC1` [Compound I-122], the 50% inhibitory concentration (IC50) came to 0.78 µM and the Ki was 0.24 µM.

`CC(=O)N1CCC(n2c(C(C)(C)C)cc(C(=O)Nc3cccc(C(F)(F)F)c3)c2C)CC1` [Compound I-101]: half-maximal inhibition (IC50) was put at 7.4 µM and the inhibition constant Ki is 2.6 µM.

`CNCCCn1c(C(C)(C)C)cc(-c2nc3ccccc3[nH]2)c1C` [Compound I-129]: the IC50 was found to be 6.4 µM.

`CCOC(=O)CCn1c(C(C)(C)C)cc(C(=O)Nc2cccc(C(F)(F)F)c2)c1C` [Compound I-090]: the half-inhibitory concentration (IC50) came out at 1.1 µM and the inhibition constant (Ki) was 0.38 µM.

As to `Cc1c(-c2nc3ccccc3[nH]2)cc(C(C)(C)C)n1CCCN1CCOCC1` [Compound I-127], the half-maximal inhibitory concentration (IC50) came out at 3.1 µM.

As to `Cc1c(S(=O)(=O)Nc2cccc(C(F)(F)F)c2)cc(C(C)(C)C)n1CCCN1CCOCC1` [Compound I-118], the half-inhibitory concentration (IC50) was found to be 9.2 µM and the Ki is 2.5 µM.

As for `Cc1c(C(=O)Nc2cccc(C(F)(F)F)c2)cc(C(C)(C)C)n1[C@H]1CC[C@H](NS(C)(=O)=O)CC1` [Compound I-114], the 50% inhibitory concentration (IC50) came out at 8.7 µM and the inhibition constant Ki is 2.3 µM.

In the case of `CNCCCn1c(C(C)(C)C)cc(S(=O)(=O)Nc2cccc(C(F)(F)F)c2)c1C` [Compound I-117], the midpoint of inhibition, the IC50, lay at 9.2 µM and the inhibitory constant (Ki) is 2.5 µM.

Source of the values: patent publication US9340500B2, “Aromatic heterocyclic derivative having TRPV4-inhibiting activity” (SHIONOGI & CO., LTD., priority 2011, dated 2016).
